Laboratory results from US9040693B2, “Fused heterocyclic derivative, medicinal composition containing the same, and medicinal use thereof” (KISSEI PHARMACEUTICAL CO., LTD., priority 2005, dated 2015).

How the values were obtained:
[1] = target: human GnRH receptor1 (GnRHR1) (Homo sapiens (Human), UniProt P30968); assay: Assay of GnRH antagonizing effect: inhibition of GnRH-stimulated intracellular calcium flux in HEK293 cells transiently expressing human GnRHR1; format: cell-based; settings: 5 nM GnRH, FLIPR calcium dye, read-out: IC50 (drug concentration at which 50% GnRH-stimulated intracellular calcium flux was inhibited)
human GnRH receptor1 (GnRHR1), sequence (P30968 whole entry): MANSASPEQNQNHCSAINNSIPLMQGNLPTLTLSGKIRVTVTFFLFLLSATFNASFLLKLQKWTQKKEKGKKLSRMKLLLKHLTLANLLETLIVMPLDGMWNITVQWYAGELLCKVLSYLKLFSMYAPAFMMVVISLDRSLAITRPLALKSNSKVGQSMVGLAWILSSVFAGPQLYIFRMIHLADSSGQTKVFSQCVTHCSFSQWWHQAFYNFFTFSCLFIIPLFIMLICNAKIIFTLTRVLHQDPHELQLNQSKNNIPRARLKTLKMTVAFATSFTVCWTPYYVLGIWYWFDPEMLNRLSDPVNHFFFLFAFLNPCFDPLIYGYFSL
Text: 1) Cloning and Construction of the Vector Expressing Human GnRH Receptor1 (GnRHR1)
Using cDNA deprived from human pituitary (BECTON DICKINSON) as a template, the DNA fragment coding 45 to 1115 bp of human GnRHR1 (Accession No. L03380), which was reported by Kakar et al., was amplified by PCR method and inserted into the multi-cloning site of pcDNA3.1(+) (Invitrogen). The DNA sequence inserted was perfectly matched to the previously reported sequence.
2) Preparation of HEK293 (Human Embryonic Kidney) Cells Expressing Human GnRH Receptor1
The expression vector introduced human GnRHR1 gene was transfected into cultured HEK293 cells (medium : MEM, 10% FCS, containing antibiotics, non-essential amino acids and pyruvic acid) by means of lipofection with the use of Lipofectamine2000 (Invitrogen). After transfection, the cells were cultured for 2 days, and used for examinations.
3) Assay of GnRH Antagonizing Effect
Antagonizing effect of compounds for human GnRHR1 was evaluated by change of calcium levels in GnRH-stimulated cells. After removing the culture medium of HEK293 cells transiently expressing human GnRHR1, cells were washed with 200 μL piper well of the washing buffer (Hank's Balanced Salt Solutions, 20 mM N-2-hydroxyethylpiperazine-N′-2-ethanesulfonic acid, 1.3 mM calcium chloride, 0.5 mM magnesium chloride, 0.4 mM magnesium sulfate). One hundred μL of the Ca^2+sensitive dye solution (FLIPR Calcium Assay Kit (Molecular Devices)) was added to the well, and the cells were incubated for 1 hour at 37° C., 5% CO2. Then, intracellular calcium levels were determined under the following condition by using FLEX STATION (Molecular Devices). In the equipment, which was warmed to 37° C., 50 μL of test compound diluted with the measurement buffer (the washing buffer with 0.1% Albumin bovine serum) was added to the well. After 1 minute, 50 μL of 5 nM GnRH was added to the well. The drug concentration, at which 50% GnRH-stimulated intracellular calcium flux was inhibited (IC50 value), was calculated using logit plot (Table 108).

[2] = Assay for oral absorbability: plasma drug concentration in rats after intravenous (1 mg/kg) and oral (3 mg/kg) administration (Cmax, bioavailability, C360); format: in vivo; settings: SD rats; for bioavailability / Cmax: male, rat, plasma; for bioavailability: oral 3 mg/kg vs intravenous 1 mg/kg; for Cmax / C360 (plasma drug concentration at 360 minutes after administration): oral administration, 3 mg/kg; for Cmax: read-out: Cmax (maximum plasma drug concentration); for availability by oral administration (in words) / blood concentration 6 hours after oral administration, sustainability (in words): oral 3 mg/kg; for availability by oral administration (in words): compared with the compounds of Example 22 (sulfonamide) and Example 95 (amide); for blood concentration 6 hours after oral administration, sustainability (in words): 360 minutes, compared with Control compounds 1 and 2; for C360 (plasma drug concentration at 360 minutes after administration): class symbols
Method: Assay for Oral Absorbability
1) Preparation of the Samples for Measurement of the Drug Concentration After Intravenous Injection to the Tail Vein
As experimental animal, overnight fasted SD rats (Charles River, male, 7 weeks of age, 170-210 g) were used. One mg of a test compound was dissolved by adding 0.2 mL of N,N-dimethylacetoamide, 0.798 mL of saline and 0.002 mL of 2N NaOH, and then 1.0 mg/mL solution was prepared. The body weights of rats were measured, and the solution of the test compound was injected intravenously to the tail vein of unanesthetized rats at the dose of 1 mL/kg (1 mg/kg). The intravenous injection to the tail vein was performed with 26 G injection needle and 1 mL syringe. The sampling times for collection of blood were 2, 15, 60, 120, 240 and 360 minutes after the intravenous injection to the tail vein. The blood was centrifuged, and the plasma was used as the sample for measurement of the drug concentration in blood.
2) Preparation of the Samples for Measurement of the Drug Concentration After Oral Administration
As experimental animal, overnight fasted SD rats (Charles River, male, 7 weeks of age, 170-210 g) were used. Three mg of a test compound was dissolved by adding 0.2 mL of N,N-dimethylacetoamide, 9.794 mL of 0.5% aqueous sodium methylcellulose solution and 0.006 mL of 2N NaOH, and then 0.3 mg/mL solution was prepared. The body weights of rats were measured, and the solution of the test compound was administered orally at the dose of 10 mL/kg (3 mg/kg). The oral administration was performed with gastric tube for rat and 2.5 mL syringe. The sampling times for collection of blood were 15, 30, 60, 120, 240 and 360 minutes after the oral administration. The blood was centrifuged, and the plasma was used as the sample for measurement of the drug concentration in blood.
3) Measurement of the Drug Concentration
To 0.025 mL of the plasma obtained in 1) and 2) described above, 0.1 mL of an adequate internal standard material was added according to the usual method, and then deproteinization was performed by adding 0.875 mL of acetonitrile. After centrifugation, 0.005 mL of the supernatant was injected into LC-MS/MS. The drug concentration in plasma was measured by LC-MS/MS method under the conditions as follows. To 0.05 mL of the blank plasma were added the internal standard material and various test compounds adequately according to the usual method, similar operating described above was done, and then the standard curves were prepared.
Each area under the plasma drug concentration-time curve by intravenous injection to the tail vein and oral administration of the test compound was estimated with WinNonlin Professional by Pharsight Corporation from the plasma drug concentration at each time obtained from the above mentioned method, and then the bioavailability (%) was calculated based on the following formula.
Bioavailability (%)={[(Area under the plasma drug concentration-time curve by oral administration)/3]/(area under the plasma drug concentration -time curve by intravenous injection to the tail vein)}×100
In the oral administration, the maximum plasma drug concentration (Cmax), bioavailability and the plasma drug concentration at 360 minutes after administration (C360) are shown in Tables 110 to 112.

IC50 [1] [nM]	bioavailability [2] [%]	Cmax [2] [ng/mL]	availability by oral administration (in words) [2]	C360 (plasma drug concentration at 360 minutes after administration) [2]	Compound	blood concentration 6 hours after oral administration, sustainability (in words) [2]
20		1310	more excellent availability	B (B: 300 ng/mL to 1000 ng/mL)	CC(C)(c1ccccc1)S(=O)(=O)c1ccc(F)c(-n2c(=O)[nH]c3csc(C(=O)O)c3c2=O)c1 [Example 202, 5-Carboxy-3-[2-fluoro-5-(1-methyl-1-phenylethylsulfonyl) -phenyl]thieno[3,4-d]pyrimidine-2,4(1H,3H)-dione]	maintain their blood concentrations 6 hours after the oral administrations
15		25000	more excellent availability	A (A: >1000 ng/mL)	COc1cc(F)c(-n2c(=O)[nH]c3csc(C(=O)O)c3c2=O)cc1OCc1c(OC)ccc(F)c1F [Example 233, 5-Carboxy-3-[2-fluoro-5-(2,3-difluoro-6-methoxybenzyloxy) -4-methoxyphenyl]thieno[3,4-d]pyrimidine-2,4(1H,3H)-dione]	maintain their blood concentrations 6 hours after the oral administrations
		17600	more excellent availability	A (A: >1000 ng/mL)	CC(C)(Oc1ccc(Cl)c(-n2c(=O)[nH]c3csc(C(=O)O)c3c2=O)c1)c1ccccc1 [Example 271]	maintain their blood concentrations 6 hours after the oral administrations
15		14100	more excellent availability	A (A: >1000 ng/mL)	COCCOc1ccc(F)c(F)c1COc1ccc(F)c(-n2c(=O)[nH]c3csc(C(=O)O)c3c2=O)c1 [Example 367]	maintain their blood concentrations 6 hours after the oral administrations
42		25600	more excellent availability	A (A: >1000 ng/mL)	COc1cc(F)c(-n2c(=O)[nH]c3csc(C(=O)O)c3c2=O)cc1COc1c(OC)ccc(F)c1F [Example 414]	maintain their blood concentrations 6 hours after the oral administrations
29		15200	more excellent availability	B (B: 300 ng/mL to 1000 ng/mL)	COc1cc(F)c(-n2c(=O)[nH]c3csc(C(=O)O)c3c2=O)cc1CN(C)c1c(F)cccc1F [Example 420]	maintain their blood concentrations 6 hours after the oral administrations

The next lines start with the compound.

Compound	IC50 [1] [nM]	bioavailability [2] [%]	Cmax [2] [ng/mL]	availability by oral administration (in words) [2]	C360 (plasma drug concentration at 360 minutes after administration) [2]	blood concentration 6 hours after oral administration, sustainability (in words) [2]
O=c1[nH]c2ccsc2c(=O)n1-c1cc(S(=O)(=O)N2CCCc3ccccc32)ccc1Cl [Example 2]	199					
O=c1[nH]c2sccc2c(=O)n1-c1cc(S(=O)(=O)N2CCCc3ccccc32)ccc1Cl [Example 3]	80					
Cc1cccc(N(C)S(=O)(=O)c2ccc(Cl)c(-n3c(=O)[nH]c4sccc4c3=O)c2)c1 [Example 17]	101					
O=C(O)c1scc2[nH]c(=O)n(-c3cc(S(=O)(=O)N4CCCc5ccccc54)ccc3Cl)c(=O)c12 [Example 22, 5-Carboxy-3-[2-chloro-5-(3,4-dihydroquinolin-1(2H)-yl-sulfonyl)phenyl]thieno[3,4-d]pyrimidine-2,4(1H,3H)-dione]	2	11	342			
Cc1ccccc1COc1ccc(Cl)c(-n2c(=O)[nH]c3csc(C(=O)O)c3c2=O)c1 [Example 25]	85					
CNC(=O)c1scc2[nH]c(=O)n(-c3cc(S(=O)(=O)N4CCCc5ccccc54)ccc3Cl)c(=O)c12 [Example 31, 5-Methylcarbamoyl-3-[2-chloro-5-(3,4-dihydroquinolin-1(2H) -ylsulfonyl)phenyl]thieno[3,4-d]pyrimidine-2,4(1H,3H)-dione]	272					
COc1cccc(F)c1C(C)Oc1ccc(F)c(-n2c(=O)[nH]c3csc(C(=O)O)c3c2=O)c1 (stereo not drawn) [Example 48, 5-Carboxy-3-{2-fluoro-5-[1-(2-fluoro-6-methoxyphenyl) -ethoxy]phenyl}[3,4-d]pyrimidine-2,4(1H,3H)-dione]	29	65	14500	more excellent availability		
CN(C(=O)c1ccc(Cl)c(-n2c(=O)[nH]c3csc(C(=O)O)c3c2=O)c1)c1ccccc1 [Example 95]	19		322			
CC(C)(C(=O)c1ccc(Cl)c(-n2c(=O)[nH]c3csc(C(=O)O)c3c2=O)c1)c1ccccc1 [Example 146]	10		17900	more excellent availability	A (A: >1000 ng/mL)	maintain their blood concentrations 6 hours after the oral administrations
COc1ccc(F)cc1C(C)(C)Sc1ccc(F)c(-n2c(=O)[nH]c3csc(C(=O)O)c3c2=O)c1 [Example 191]	17		13500	more excellent availability		
